Experimental findings from patent US6399568B1, “Cyclic tetrapeptide derivatives and medicinal use thereof” (Japan Energy Corporation, priority 1997, dated 2002) are described below.

In one assay the test system is B16/BL6 cells. Put plainly: MHC class-I molecule expression promoting activity. Type of assay: cell-based, mouse. As to conditions: for conc. for 2-fold expression (nM) mean: mean of a plurality of assays; for MHC class-I molecule expression promoting activity: allowed to act on animal cells (summary statement).
The target in a further assay is histone deacetylase. Briefly: Histone deacetylase enzyme inhibiting activity, synthetic peptide substrate. As to conditions: enzyme from B16/BL6 cells; [3H]acetylated histone H4 peptide; 37° C. 3 hours. The format is biochemical, mouse. The method, then:
The preparation of histone deacetylase was performed essentially according to the method of Yoshida et al. (J. Biol. Chem., 265,17174-17179, 1990). The enzyme to be used was partially purified from B16/BL6 cells. The cells were suspended in HDA buffer (15 mM potassium phosphate, 5% glycerol, 0.2 mM EDTA, […], pH 7.5), homogenized and centrifuged (2500×g, 10 min) to collect the nuclei, which in turn were homogenized in the same buffer containing 1 M (NH4)2SO4. After ultrasonic disruption and centrifugation, the concentration of (NH4)2SO4 in the collected supernatant was increased to 3.5 M to precipitate histone deacetylase. This precipitate was redissolved in HDA buffer, subjected to gel filtration to replace the solvent with HDA buffer, and used as a crude histone deacetylase enzyme solution.
As a substrate, a synthetic substrate peptide, [^3H]acetylated histone H4 peptide was used. This [^3H]acetylated histone H4 peptide was obtained by synthesizing the N-terminal peptide of histone H4; […] (the C-terminal being cysteine) and radio-acetylating with ^3H -acetic anhydride.
An assay was performed by incubating the synthetic substrate solution and the enzyme solution at 37° C. for 3 hours in the presence of a compound to be tested (reaction volume, 100 μl). The reaction was stopped by adding 25 μl of 1 M HCl and 0.2 M acetic acid and [^3H]acetate excised by the enzyme reaction was extracted with ethyl acetate for radioactivity measurement. As a control group, the same procedure was repeated without addition of any test compound to the reaction system. The inhibiting activity was expressed by a concentration at which the histone deacetylase enzyme activity in the control group was inhibited by 50% (50% inhibiting concentration).

Non-standard residues stand in square brackets, D forms with d. Residues, ends and D or L forms follow the SMILES beside them. ξ: configuration not given here. *: point of attachment. d1Nal = N[C@H](Cc1cccc2ccccc12)C(=O)O; Asu = N[C@@H](CCCCCC(=O)O)C(=O)O; dTic = O=C(O)[C@H]1Cc2ccccc2CN1; Ile(3ξ) = CCC(C)[C@H](N)C(=O)O; Pip = O=C(O)[C@@H]1CCCCN1; dPip = O=C(O)[C@H]1CCCCN1; BrAc = O=C(CBr)*; Sar = CNCC(=O)O; For = O=C*; NHOH = ON*

Procedure for B16/BL6 cells: The cancer cells used were mouse melanoma cells, B16/BL6 cells, provided by, the National Cancer Institute, U.S.A. Said cells were cultivated in MEM media supplemented with 10% FBS at 37° C. in the presence of 5% carbon dioxide in an humidified incubator.
A compound to be tested was preliminarily dissolved in dimethyl sulfoxide (DMSO) and adjusted to a concentration of 100 mM or 10 mM (source solution).
Said B16/BL6 cells were inoculated on 96 well microplate at a cell density of 5000 cells per well, each well containing 200 μl of said medium. […] Thereafter, each well was once washed with PBS (phosphate buffered saline) and floating cells and the medium were removed. Then, the well was treated with 0.1% glutaraldehyde solution for 3 minutes to fix the cells.
The amount of MHC class-I molecule expressed on the surface of the fixed cells was measured by the following method. Anti-H-2K^bD^bD^d antibody, which is an antibody against mouse MHC classI molecule (commercially available from Meiji Milk Co., Ltd), was used as a primary antibody, biotinylated anti-mouse IgG+M (commercially available from Chemicon) was used as a secondary antibody, and streptavidin-β-galactosidase conjugate (commercially available from BRL) was reacted as a labelling enzyme. The amount of the thus labelled enzyme β-galactosidase was measured in a microplate reader by recording the fluorescent intensity (excitation: 365 nm, fluorescence: 450 nm) derived from the enzymaticreaction product using 4-methylumbelliferyl-β-D-galactoside (commercially available from Nacalai Tesque) as a substrate. […] The value obtained by subtracting said background level from the, actually measured value (an apparent value including the background level) was the true measurement reflecting the amount of expressed MHC class-I molecule.
A group without the addition of any compound to be tested was used as a reference group and the measurement of MHC class-I molecule expressed in said group was used as a standard value. The amount of MHC class-I molecule expressed at a concentration of addition of each test compound is shown as a relative amount, said standard value taken as one (1). For each compound to be tested, various concentrations of addition were selected to investigate the dependency of MHC class-I molecule expression promoting action on the concentration of addition.

As to `CC(=O)NC(CCCCCC(=O)NO)C(=O)NCc1ccccc1` (centres unmarked) [Ac-Asu(NHOH)-NH-Bzl, reference compound], in the assay with B16/BL6 cells (72 hours), the “conc. for 2-fold expression (nM) mean” value is 2410 nM.

`CC(C)C[C@@H]1NC(=O)[C@H](Cc2cn(C=O)c3ccccc23)NC(=O)[C@H](CCCCCC(=O)NO)NC(=O)[C@H]2CCCCN2C1=O` [HDA-16, cyclo(-L-Asu(NHOH)-L-Trp(CHO)-L-Leu-D-Pip-)] (cyclo([Asu](NHOH)W(For)L[dPip])): in the assay with B16/BL6 cells (72 hours), the “conc. for 2-fold expression (nM) mean” value is “toxic”.

Consider `O=C(CBr)NCCCC[C@@H]1NC(=O)[C@H]2CCCN2C(=O)[C@H](Cc2ccccc2)NC(=O)[C@H](Cc2ccccc2)NC1=O` [HDA-26, cyclo(-L-Lys(BrAc)-L-Phe-L-Phe-D-Pro-)] (cyclo(FF[dP]K(BrAc))), for which the “conc. for 2-fold expression (nM) mean” value in the assay on B16/BL6 cells (72 hours) was 5660 nM.

Take `CC(C)C[C@@H]1NC(=O)[C@H](Cc2c[nH]c3ccccc23)NC(=O)[C@H](CCCCCC(=O)NO)NC(=O)[C@H]2CCCCN2C1=O` [HDA-33, cyclo(-L-Asu(NHOH)-L-Trp-L-Leu-D-Pip-)] (cyclo([Asu](NHOH)WL[dPip])): the “conc. for 2-fold expression (nM) mean” value with B16/BL6 cells (72 hours) is “weak”.

What is called IC50 is the concentration that inhibits the measured activity by half. The compound `O=C(CCCCC[C@@H]1NC(=O)[C@@H](Cc2ccccc2)NC(=O)[C@H](Cc2ccccc2)NC(=O)[C@H]2CCCN2C1=O)NO` [HDA-37, cyclo(-L-Asu(NHOH)-D-Pro-L-Phe-D-Phe-)] (cyclo([Asu](NHOH)[dP]F[dF])) displayed a half-inhibitory concentration (IC50) against histone deacetylase of 9.16 nM. The “conc. for 2-fold expression (nM) mean” value with B16/BL6 cells (72 hours) stood at 320 nM.

With `O=C(CCCCC[C@@H]1NC(=O)[C@@H]2CCCN2C(=O)[C@H](Cc2ccccc2)NC(=O)[C@@H](Cc2ccccc2)NC1=O)NO` [HDA-38, cyclo(-L-Asu(NHOH)-D-Phe-L-Phe-L-Pro-)] (cyclo([Asu](NHOH)[dF]FP)), at histone deacetylase, half-maximal inhibition (IC50) required 5.32 nM. Moreover, the “conc. for 2-fold expression (nM) mean” value with B16/BL6 cells (72 hours) is on record as 558 nM.

For the compound `O=C(CCCCC[C@@H]1NC(=O)[C@@H]2CCCN2C(=O)[C@@H](Cc2ccccc2)NC(=O)[C@H](Cc2ccccc2)NC1=O)NO` [HDA-39, cyclo(-L-Asu(NHOH)-L-Phe-D-Phe-L-Pro-)] (cyclo([Asu](NHOH)F[dF]P)), the IC50 at histone deacetylase came to 226 nM. Besides, the “conc. for 2-fold expression (nM) mean” value in the assay with B16/BL6 cells (72 hours) stood at 65800 nM.

Consider `CN1CC(=O)N[C@@H](CCCCCC(=O)NO)C(=O)N[C@@H](Cc2ccccc2)C(=O)N[C@@H](Cc2ccccc2)C1=O` [HDA-40, cyclo(-L-Asu(NHOH)-L-Phe-L-Phe-Sar-)] (cyclo([Asu](NHOH)FF[Sar])), for which, in the assay with B16/BL6 cells (72 hours), the “conc. for 2-fold expression (nM) mean” value worked out at 748 nM.

For the compound `CCC(C)[C@@H]1NC(=O)[C@@H](Cc2ccc(OC)cc2)NC(=O)[C@H](CCCCC(=O)NO)NC(=O)[C@H]2CCCN2C1=O` (stereo partly drawn) [HDA-42, cyclo(-L-Api(NHOH)-D-Tyr(Me)-L-Ile-D-Pro-)], on histone deacetylase, the 50% inhibitory concentration (IC50) worked out at 53.8 nM. Besides, the “conc. for 2-fold expression (nM) mean” value in the assay with B16/BL6 cells (72 hours) amounted to 512 nM.

Compound `CCC(C)[C@@H]1NC(=O)[C@@H](Cc2ccc(OC)cc2)NC(=O)[C@H](CCCCCCC(=O)NO)NC(=O)[C@H]2CCCN2C1=O` (stereo partly drawn) [HDA-43, cyclo(-L-Aaz(NHOH)-D-Tyr(Me)-L-Ile-D-Pro-)] had a half-maximal inhibitory concentration (IC50) against histone deacetylase of 33.9 nM. In the assay with B16/BL6 cells (72 hours), the “conc. for 2-fold expression (nM) mean” value was 155 nM.

Take `COc1ccc(C[C@H]2NC(=O)[C@H](CCCCCC(=O)NO)NC(=O)[C@H]3CCCN3C(=O)[C@H](C)NC2=O)cc1` [HDA-44, cyclo(-L-Asu(NHOH)-D-Tyr(Me)-L-Ala-D-Pro-)] (cyclo(A[dP][Asu](NHOH)[dY](Me))): the “conc. for 2-fold expression (nM) mean” value in the assay on B16/BL6 cells (72 hours) is on record as 35.00 nM.

Regarding `C[C@@H]1NC(=O)[C@@H](Cc2ccccc2)NC(=O)[C@H](CCCCCC(=O)NO)NC(=O)[C@H]2CCCN2C1=O` [HDA-45, cyclo(-L-Asu(NHOH)-D-Phe-L-Ala-D-Pro-)] (cyclo(A[dP][Asu](NHOH)[dF])), the “conc. for 2-fold expression (nM) mean” value in the assay with B16/BL6 cells (72 hours) amounted to 23.1 nM.

On to `CCC(C)[C@@H]1NC(=O)[C@@H](Cc2ccccc2)NC(=O)[C@H](CCCCCC(=O)NO)NC(=O)[C@H]2CCCN2C1=O` (stereo partly drawn) [HDA-46, cyclo(-L-Asu(NHOH)-D-Phe-L-Ile-D-Pro-)] (cyclo([Asu](NHOH)[dF][Ile(3ξ)][dP])), for which, in the assay on B16/BL6 cells (72 hours), the “conc. for 2-fold expression (nM) mean” value amounted to 1.96 nM.

As for `CCC(C)[C@@H]1NC(=O)[C@@H](Cc2cccc3ccccc23)NC(=O)[C@H](CCCCCC(=O)NO)NC(=O)[C@H]2CCCN2C1=O` (stereo partly drawn) [HDA-47, cyclo(-L-Asu(NHOH)-D-Naf-L-Ile-D-Pro-)] (cyclo([Asu](NHOH)[d1Nal][Ile(3ξ)][dP])), the “conc. for 2-fold expression (nM) mean” value with B16/BL6 cells (72 hours) came to 9.59 nM.

For the compound `CCC(C)[C@@H]1NC(=O)[C@@H](Cc2ccc3ccc4cccc5ccc2c3c45)NC(=O)[C@H](CCCCCC(=O)NO)NC(=O)[C@H]2CCCN2C1=O` (stereo partly drawn) [HDA-48, cyclo(-L-Asu(NHOH)-D-Pya-L-Ile-D-Pro-)], in the assay with B16/BL6 cells (72 hours), the “conc. for 2-fold expression (nM) mean” value is 0.846 nM.

Compound `CC[C@H](C)[C@@H]1NC(=O)[C@@H](Cc2ccc(OC)cc2)NC(=O)[C@H](CCCCCC(=O)NO)NC(=O)[C@H]2Cc3ccccc3CN2C1=O` [HDA-52, cyclo(-L-Asu(NHOH)-D-Tyr(Me)-L-Ile-D-Tic-)] (cyclo([Asu](NHOH)[dY](Me)I[dTic])) came in with an IC50 against histone deacetylase of 4.35 nM. Moreover, the “conc. for 2-fold expression (nM) mean” value in the assay on B16/BL6 cells (72 hours) turned out to be 0.191 nM.

Consider `CC(C)C[C@@H]1NC(=O)[C@@H](Cc2ccccc2)NC(=O)[C@H](CCCCCC(=O)NO)NC(=O)[C@@H]2CCCCN2C1=O` [HDA-53, cyclo(-L-Asu(NHOH)-D-Phe-L-Leu-L-Pip-)] (cyclo([Asu](NHOH)[dF]L[Pip])), for which the “conc. for 2-fold expression (nM) mean” value with B16/BL6 cells (72 hours) is 19.8 nM.

Regarding `O=C(CCCCCc1ccccc1)NO` [Ph-(CH2)5-CONHOH, reference compound], the “conc. for 2-fold expression (nM) mean” value in the assay on B16/BL6 cells (72 hours) was determined as 11400 nM.

In the case of `O=C(NO)c1ccccc1` [benzohydroxamic acid, reference compound], the “conc. for 2-fold expression (nM) mean” value with B16/BL6 cells (72 hours) was determined as 35800 nM.

On to `O=C(O)c1ccccc1` [benzoic acid, reference compound], for which the “conc. for 2-fold expression (nM) mean” value with B16/BL6 cells (72 hours) is listed as greater than 200000 nM.

As for `CCCC(=O)O` [butyric acid, reference compound], the “MHC class-I molecule expression promoting activity” value in the assay on B16/BL6 cells is on record as “exhibit the MHC class-I molecule expression promoting activity”.

Take `NC(=O)c1cccnc1` [nicotinamide, reference compound]: the “conc. for 2-fold expression (nM) mean” value in the assay on B16/BL6 cells (72 hours) is greater than 1000000 nM.

As to `O=C(NO)c1cccnc1` [nicotinic acid hydroxamate, reference compound], in the assay with B16/BL6 cells (72 hours), the “conc. for 2-fold expression (nM) mean” value worked out at 28000 nM.

Regarding `O=C(O)c1cccnc1` [nicotinic acid, reference compound], in the assay on B16/BL6 cells (72 hours), the “conc. for 2-fold expression (nM) mean” value is recorded as greater than 1000000 nM.

With `CC(/C=C/C(=O)NO[C@@H]1O[C@H](CO)[C@@H](O)[C@H](O)[C@H]1O)=C\[C@@H](C)C(=O)c1ccc(N(C)C)cc1` [trichostatin C, reference compound], the “MHC class-I molecule expression promoting activity” value in the assay on B16/BL6 cells is “promotes the expression of MHC class-I molecule”. In the assay with B16/BL6 cells (72 hours), the “conc. for 2-fold expression (nM) mean” value was 6.88 nM.

As for “cyclo (-L-Lys(Ac)L-Phe-L-Phe-D-Pro-)2 [HDA-7, reference compound]”, in the assay on B16/BL6 cells (72 hours), the “conc. for 2-fold expression (nM) mean” value is 75000 nM.

“cyclo(-Asu(NHOH)-D-Phe-Phe-Sar-) [CHAP41]”: the “conc. for 2-fold expression (nM) mean” value in the assay on B16/BL6 cells (72 hours) amounted to 24.5 nM.

As for “cyclo(-Asu(NHOH)-Phe-Phe-D-Pro-)2 [HDA-19, reference compound]”, in the assay with B16/BL6 cells (FIGS. 3 and 4, dependence on concentration of addition), the “MHC class-I molecule expression promoting action” value is on record as “low MHC class-I molecule expression promoting action was observed only at a high concentration of addition”. Further, in the assay with B16/BL6 cells (concentration at which MHC class-I expression is twice that without addition, 72 hours), the “Twice Promoting Concentration Cx2” value is greater than 40 µM. In addition, in the assay with B16/BL6 cells (72 hours), the “conc. for 2-fold expression (nM) mean” value is listed as “weak”.

Consider “cyclo(-L-Asu(NHOH)-D-Tyr(Me)-L-Ile-L-Pro-)2 [HDA-14, reference compound]”, for which, in the assay on B16/BL6 cells (72 hours), the “conc. for 2-fold expression (nM) mean” value was greater than 10000 nM.
